Source: PubChem BioAssay AID1208 (EPA DSSTox, 2008)
Active and inactive are the calls of the source.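 The calls were made as follows: active = at least one rat sex group has a carcinogenic potency value and tumor site recorded; inconclusive = only rat studies were judged inadequate by the national testing program; inactive = no potency or tumor site, with negative rat experiments.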 *1 amine or outer side, *2 acyl side, *3 side chain or, on linkers, in order; H or OH if unused. Where a SMILES comes first, the peptide text is derived from it. Bridges are numbered along the chain shown (N, C = ends). Roman numbers before positions name the chains, in order. [ ]: non-standard residue; d: D form. Actinocin(9to1) = Cc1c2oc3c(C)ccc(C(=O)[*:1])c3nc-2c(C(=O)[*:2])c(N)c1=O; NMeV = CN[C@H](C(=O)O)C(C)C; Sar = CNCC(=O)O

Test system: rat chronic carcinogenicity bioassay, TD50
Assay: DSSTox (CPDBAS) Carcinogenic Potency Database Summary Rat Bioassay Results
Settings: for Potency: active compounds read low
In short: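 Chronic long-term rat cancer bioassays from literature and NCI/NTP, taking the most positive result per sex. TD50 in mmol converted to a 1–100 Activity Score from log10(1/TD50). Mixtures lacking TD50 scored 50.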

[1] = TD50_Rat_Note: TD50 is harmonic mean of more than one positive test, TargetSites_Rat_Female: stomach
[2] = TD50_Rat_Note: no positive results, TargetSites_Rat_Female: no positive results
[3] = TargetSites_Rat_Female: no positive results
[4] = TD50_Rat_Note: no positive results
[5] = TD50_Rat_Note: positive test results only by intraperitoneal or intravenous injection, TD50 is harmonic mean of more than one positive, TargetSites_Rat_Female: peritoneal cavity
[6] = TD50_Rat_Note: TD50 is harmonic mean of more than one positive test, TargetSites_Rat_Female: esophagus, nasal cavity

`O=C(O)/C=C/c1ccc(O)c(O)c1` showed a Potency [1] of 297 mg/kg/day.

With `O=[N+]([O-])/C=C/c1ccccc1` the outcome [2] was “inactive; no positive results”.

`COC(=O)[C@H]1[C@H]2C[C@@H]3c4[nH]c5cc(OC)ccc5c4CCN3C[C@H]2C[C@@H](OC(=O)c2cc(OC)c(OC)c(OC)c2)[C@@H]1OC` showed a Potency [3] of 0.306 mg/kg/day.

With `ClC1=C(Cl)[C@]2(Cl)[C@@H]3[C@@H]4C[C@@H]([C@H]5O[C@@H]45)[C@@H]3[C@@]1(Cl)C2(Cl)Cl` the outcome [2] was “inactive; no positive results”.

For `N[C@@H](CS)C(=O)O`, the outcome [2] was “inactive; no positive results”.

For `C[C@@H]1C/C=C/C=C/C=C/C=C/[C@H](O[C@@H]2O[C@H](C)[C@@H](O)[C@H](N)[C@@H]2O)C[C@@H]2O[C@](O)(C[C@@H](O)C[C@H]3O[C@@H]3/C=C/C(=O)O1)C[C@H](O)[C@H]2C(=O)O`, the outcome [2] was “inactive; no positive results”.

In the case of `OC(O)C(Cl)(Cl)Cl`, the outcome [4] is reported as “inactive; no positive results”.

In the case of `C[C@H](CCC(=O)O)[C@H]1CC[C@H]2[C@@H]3CC[C@@H]4C[C@H](O)CC[C@]4(C)[C@H]3CC[C@]12C`, the outcome [2] is reported as “inactive; no positive results”.

With `Cc1ccc(N)cc1Cl` the outcome [2] was “inactive; no positive results”.

With `Cn1c(=O)c2[nH]cnc2n(C)c1=O` the outcome [2] was “inactive; no positive results”.

`CC1SC(C)N(N=O)C(C)S1` (stereo unspecified) showed a Potency (TargetSites_Rat_Female: esophagus, liver, oral cavity) of 0.483 mg/kg/day.

For `CC1(C)COC1=O`, the Potency [1] was 211 mg/kg/day.

In the case of `S=C(NC1CCCCC1)NC1CCCCC1`, the outcome [2] is reported as “inactive; no positive results”.

Work on `O=C(O)c1ccc([N+](=O)[O-])cc1` yielded a Potency (TargetSites_Rat_Female: clitoral gland) of 287 mg/kg/day.

`COc1ccc(C(Cl)=C(c2ccc(OC)cc2)c2ccc(OC)cc2)cc1` was tested, and the outcome [2] was “inactive; no positive results”.

`CC(C)CON=O` showed a Potency (TD50_Rat_Note: TD50 is harmonic mean of more than one positive test, TargetSites_Rat_Female: lung) of 54.1 mg/kg/day.

In the case of `Cn1cnc2nc(N)[nH]c(=O)c21`, the outcome (TD50_Rat_Note: no positive results, TargetSites_Rat_BothSexes: no positive results) is reported as “inactive”.

In the case of `c1cc(OCC2CO2)cc(OCC2CO2)c1` (stereo unspecified), the Potency [1] is reported as 3.78 mg/kg/day.

In the case of `NNc1nc(-c2ccccc2)cs1`, the outcome [2] is reported as “inactive”.

For `CCCCCCCN`, the outcome [4] was “inactive; no positive results”.

In the case of `C=C(C)C#N`, the outcome [2] is reported as “inactive; no positive results”.

In the case of `C=CCOc1ccccc1OCC(O)CNC(C)C` (stereo unspecified), the outcome [2] is reported as “inactive; no positive results”.

For `O[C@H]([C@H](O)[C@@H](O)CBr)[C@H](O)CBr`, the Potency (TD50_Rat_Note: positive test results only by intraperitoneal or intravenous injection) was 8.37 mg/kg/day.

In the case of `OCCOCCOCCO`, the outcome [4] is reported as “inactive; no positive results”.

With `CC(=O)Nc1ccc(O)cc1` the Potency (TD50_Rat_Note: TD50 is harmonic mean of more than one positive test, TargetSites_Rat_Female: liver, urinary bladder) was 495 mg/kg/day.

For `CC(C)CN(N=O)C(=N)N[N+](=O)[O-]`, the outcome [4] was “inactive; no positive results”.

Compound `CCN(CC(F)(F)F)N=O` has a Potency of 2.52 mg/kg/day.

Work on `Clc1ccc(-c2ccc(Cl)c(Cl)c2Cl)c(Cl)c1Cl` yielded a Potency (TD50_Rat_Note: TD50 is harmonic mean of more than one positive test, TD50_Rat_mmol was not calculated for this mixture, but Activiity S, TargetSites_Rat_Female: liver) of 2.81 mg/kg/day.

`CCCC(CCC)C(=O)O` was tested, and the Potency (TargetSites_Rat_Female: uterus) was 1300 mg/kg/day.

Work on `Cc1cc2c(nc1N)[nH]c1ccccc12` yielded a Potency of 6.7 mg/kg/day.

In the case of `Cc1[nH]cnc1CSCCN=C(NC#N)N(C)N=O`, the outcome [2] is reported as “inactive; no positive results”.

For `CCCC(Cl)CCC(Cl)CCC(Cl)CCC(Cl)CCC(Cl)CCC(Cl)CCC(C)Cl` (stereo unspecified), the outcome [2] was “inactive; no positive results”.

With `CN(C)C(=S)SSC(=S)N(C)C` the outcome [2] was “inactive; no positive results”.

Work on `CC(C)n1c(/C=C/[C@@H](O)C[C@@H](O)CC(=O)O)c(-c2ccc(F)cc2)c2ccccc21` yielded a Potency [3] of 125 mg/kg/day.

Work on `O=C1O[C@@H](CN2CCOCC2)CN1/N=C/c1ccc([N+](=O)[O-])o1` yielded a Potency (TargetSites_Rat_Female: hematopoietic system, kidney, mammary gland) of 6.33 mg/kg/day.

With `CCCCC(CC)CO` (stereo unspecified) the outcome [2] was “inactive; no positive results”.

With `CC(COc1ccccc1)N(CCCl)Cc1ccccc1` (stereo unspecified) the Potency [5] was 1.09 mg/kg/day.

`O=C/C=C/c1ccccc1` was tested, and the outcome [2] was “inactive; no positive results”.

With `CNC(=S)NC` the outcome [4] was “inactive; no positive results”.

`S=[Se]` showed a Potency (TD50_Rat_Note: TD50 is harmonic mean of more than one positive test, TargetSites_Rat_Female: liver) of 8.01 mg/kg/day.

`C[N+](C)(C)CCCl` was tested, and the outcome [2] was “inactive; no positive results”.

In the case of `CC(O)CN(C)N=O` (stereo unspecified), the Potency [6] is reported as 0.0463 mg/kg/day.

For `CC1CC(=O)O1` (stereo unspecified), the Potency (TargetSites_Rat_Female: stomach) was 13.8 mg/kg/day.

Compound `Nc1ccc(Sc2ccc(N)cc2)cc1` has a Potency (TD50_Rat_Note: TD50 is harmonic mean of more than one positive test, TargetSites_Rat_Female: ear Zymbals gland, thyroid gland, uterus) of 3.71 mg/kg/day.

In the case of `CC(=O)c1ccc(S(=O)(=O)NC(=O)NC2CCCCC2)cc1`, the outcome [2] is reported as “inactive; no positive results”.

For `CCOP(=S)(OCC)Oc1nc(Cl)c(Cl)cc1Cl`, the outcome [2] was “inactive; no positive results”.

For `Cl/C=C/CCl`, the Potency [1] was 94 mg/kg/day and the Potency [2] was 100 mg/kg/day.

`CC(O)C(=O)O` (stereo unspecified) was tested, and the outcome [2] was “inactive; no positive results”.

With `CC(Cl)(Cl)Cl` the outcome [2] was “inactive; no positive results”.

With `CC(C)(OCc1ccc(-c2ccc(Cl)cc2)cc1)C(=O)O` the outcome [2] was “inactive; no positive results”.

`Clc1ccccc1` showed a Potency [3] of 247 mg/kg/day.

Work on `Nc1nc(N)nc(N)n1` yielded a Potency [3] of 735 mg/kg/day.

Compound `CC1(C)C(=O)Nc2ccc(C3=NNC(=O)CC3)cc21` has a Potency (TD50_Rat_Note: TD50 is harmonic mean of more than one positive test, TargetSites_Rat_Female: adrenal gland) of 2.01 mg/kg/day.

For `CN(C)c1ccc(N=NS(=O)(=O)O)cc1`, the outcome [2] was “inactive; no positive results”.

For `CCOP(=S)(OCC)Oc1ccc([N+](=O)[O-])cc1`, the outcome [2] was “inactive; no positive results”.

`O=NN1CCCC1c1ccc[n+]([O-])c1` (stereo unspecified) was tested, and the Potency [6] was 0.876 mg/kg/day.

For `O.O.O.O.O.O.O=S(=O)([O-])[O-].[Ni+2]`, the outcome [2] was “inactive; no positive results”.

With `O=C1OC(=O)c2ccccc21` the outcome [2] was “inactive; no positive results”.

In the case of `CN(C)C(=S)[S][Pb][S]C(=S)N(C)C`, the outcome [2] is reported as “inactive; no positive results”.

In the case of `[Cl-].[Cl-].[Sn+2]`, the outcome [2] is reported as “inactive; no positive results”.

In the case of `ClC(Cl)=C(Cl)Cl`, the Potency (TD50_Rat_Note: TD50 is harmonic mean of more than one positive test, TargetSites_Rat_Female: hematopoietic system) is reported as 145 mg/kg/day.

In the case of `CCOCCc1c(-c2ccccc2)nc(N)n2ncnc12`, the Potency (TD50_Rat_Note: TD50 is harmonic mean of more than one positive test, TargetSites_Rat_Female: liver, mammary gland) is reported as 548 mg/kg/day.

`O=NN(CC(F)(F)F)CC(F)(F)F` was tested, and the outcome [2] was “inactive; no positive results”.

With `ClC/C=C/CCl` the Potency (TD50_Rat_Note: TD50 is harmonic mean of more than one positive test, TargetSites_Rat_Female: nasal cavity) was 0.297 mg/kg/day.

For `ClCC(Cl)(Cl)Cl`, the outcome [2] was “inactive; no positive results”.

For `CC1(C)[C@H](C(=O)O[C@H](C#N)c2cccc(Oc3ccccc3)c2)[C@@H]1C=C(Br)Br`, the outcome [2] was “inactive; no positive results”.

For `Clc1cnc(Oc2ccc(Oc3ncc(Cl)cc3Cl)cc2)c(Cl)c1`, the outcome [4] was “inactive; no positive results”.

`Cc1c2oc3c(C)ccc(C(=O)N[C@@H]4C(=O)N[C@H](C(C)C)C(=O)N5CCC[C@H]5C(=O)N(C)CC(=O)N(C)[C@@H](C(C)C)C(=O)O[C@@H]4C)c3nc-2c(C(=O)N[C@@H]2C(=O)N[C@H](C(C)C)C(=O)N3CCC[C@H]3C(=O)N(C)CC(=O)N(C)[C@@H](C(C)C)C(=O)O[C@@H]2C)c(N)c1=O` (I: T[dV]P[Sar][NMeV] / II: T[dV]P[Sar][NMeV]; ester I:1-I:C, II:1-II:C; linker I:N-II:N via Actinocin(9to1)) showed a Potency [5] of 0.00111 mg/kg/day.

For `C/C=C/c1ccc(OC)cc1`, the outcome [2] was “inactive; no positive results”.

For `CN(N=O)c1ccccn1`, the Potency (TargetSites_Rat_Female: esophagus) was 0.214 mg/kg/day.

Compound `O=C1CCO1` has a Potency [1] of 1.46 mg/kg/day.

With `[Cd+2].[Cl-].[Cl-]` the Potency (TD50_Rat_Note: TD50 is harmonic mean of more than one positive test, greater than ten-fold variation among TD50 values for positive res, TargetSites_Rat_Female: lung) was 0.0136 mg/kg/day.

`OCC(CO)(CBr)CBr` was tested, and the Potency (TD50_Rat_Note: TD50 is harmonic mean of more than one positive test, TargetSites_Rat_Female: esophagus, mammary gland, oral cavity, thyroid gland) was 111 mg/kg/day.

`N[C@@H](Cc1c[nH]c2ccccc12)C(=O)O` was tested, and the outcome [2] was “inactive; no positive results”.

`CCN(CC)c1cc2oc3cc(=[N+](CC)CC)c(C)cc-3c(-c3ccc(S(=O)(=O)O)cc3S(=O)(=O)[O-])c2cc1C` was tested, and the outcome [2] was “inactive; no positive results”.

`NC(=O)N/N=C/c1ccco1` was tested, and the outcome [2] was “inactive”.

`ClCCl` showed a Potency (TD50_Rat_Note: TD50 is harmonic mean of more than one positive test, TargetSites_Rat_Female: mammary gland) of 724 mg/kg/day.

`CCC1CO1` (stereo unspecified) showed a Potency [3] of 220 mg/kg/day.

`FC(F)(Cl)C(F)(Cl)Cl` was tested, and the outcome [2] was “inactive; no positive results”.

`Cc1ccc([N+](=O)[O-])cc1N` was tested, and the outcome [2] was “inactive; no positive results”.

`CC(F)(Cl)Cl` was tested, and the Potency [3] was 5260 mg/kg/day.

`C=C/C1=C/[C@H](C)[C@](C)(OC(C)=O)C(=O)OCC2=CC[N+]3(C)CC[C@@H](OC1=O)C23[O-]` (stereo partly specified) gave a Potency (TargetSites_Rat_BothSexes: liver, vascular system) of 0.5 mg/kg/day.

`CC(C)=NO` was tested, and the Potency [3] was 12.1 mg/kg/day.

`Cc1cc(C)c(N=Nc2c(O)c(S(=O)(=O)O)cc3cc(S(=O)(=O)O)ccc23)cc1C` showed a Potency (TD50_Rat_Note: TD50 is harmonic mean of more than one positive test, greater than ten-fold variation among TD50 values for positive res, TargetSites_Rat_Female: liver) of 521 mg/kg/day.

`CN(C)c1ccccc1` showed a Potency [3] of 125 mg/kg/day.
